The species named for data set [1] is Rattus norvegicus. Particulars: in vivo, po.
Data set [2] in a line: in vivo. Particulars: Sprague-Dawley, rat, iv, 1 mg/mg.
A short description of data set [3]: in vivo. Particulars: Sprague-Dawley, rat, po, 10 mg/mg.
The nature of data set [4]: in vivo. Particulars: Sprague-Dawley, rat, iv, 1 mg/mg. This is another data set of the same source.
The nature of data set [5]: in vivo. Particulars: Sprague-Dawley, rat, po, 10 mg/mg. The source holds these as a separate data set.
Data set [6] in a line: in vivo. Particulars: Sprague-Dawley, rat, iv, 1 mg/mg. This is another data set of the same source.
The nature of data set [7]: in vivo. Particulars: Sprague-Dawley, rat, po, 10 mg/mg. The source holds these as a separate data set.
Data set [8] in a line: in vivo. Particulars: Sprague-Dawley, rat, iv, 1 mg/mg. This is another data set of the same source.
A short description of data set [9]: in vivo. Particulars: Sprague-Dawley, rat, po, 10 mg/mg. The source holds these as a separate data set.
The nature of data set [10]: in vivo. Particulars: Sprague-Dawley, rat, iv, 1 mg/mg. This is another data set of the same source.
A short description of data set [11]: in vivo. Particulars: Sprague-Dawley, rat, po, 10 mg/mg. This is another data set of the same source.
The nature of data set [12]: in vivo. Particulars: Sprague-Dawley, rat, iv, 1 mg/mg. The source holds these as a separate data set.
The nature of data set [13]: in vivo. Particulars: Sprague-Dawley, rat, po, 10 mg/mg. The source holds these as a separate data set.
A short description of data set [14]: in vivo. Particulars: Sprague-Dawley, rat, iv, 1 mg/mg. The source holds these as a separate data set.
Data set [15] is described as follows: in vivo. Particulars: Sprague-Dawley, rat, po, 10 mg/mg. This is another data set of the same source.
Data set [16] can be described thus: in vivo. Particulars: Sprague-Dawley, rat, po, 10 mg/mg. The source holds these as a separate data set.
Data set [17] in a line: in vivo. Particulars: Sprague-Dawley, rat, iv, 1 mg/mg. This is another data set of the same source.

For orientation: AUC(0-t) means the area under the concentration-time curve up to a stated or last time point. The term AUC(0-inf) denotes total exposure, with the tail of the curve extrapolated. As a reminder, the Cmax is the peak of the concentration-time curve. Broadly, the Tmax is the time at which the peak concentration occurs. The term half-life denotes how long it takes for the measured level to halve. The low end stands for rapid decline, the high end for slow decline. What is called clearance is a measure of how efficiently the substance is removed, as volume per time. A high value points to efficient removal. Broadly, the CL/F is the apparent clearance, not corrected for the fraction that reaches the circulation. Broadly, the MRT inf is the average time that molecules of a dose stay in the body. As usually defined, the bioavailability is the share of a dose that reaches the circulation, judged against a reference dose that is usually intravenous. In the case of `CC(C)(C)c1cc(NC(=O)Nc2ccc(-n3nc(-c4ccc(OCCN5CCOCC5)cc4)c4c(N)ncnc43)cc2)no1`, the Vz in data set [1] amounted to 0.06082 L/kg. Further, the area under the curve AUC(0-t) in [2] is 520 ng·h/mL; in data set [3], 978 ng·h/mL. For the same compound, the total exposure AUC(0-inf) in data set [4] came out at 525 ng·h/mL; in data set [5] it was 991 ng·h/mL. The Cmax in data set [6] stood at 839 ng/mL; in data set [7] it was 83.5 ng/mL. Further, the figures for the Tmax in data set [8] and in data set [9] were 1.02 min and 6.66 h, respectively. The values for the half-life in data set [10] and in data set [11] were 3.34 h and 3.61 h, respectively. This compound also showed a clearance in data set [12] of 0.0345 mL/min/kg. In [13], this compound had a CL/F of 0.193 mL/min/kg. For the same compound, the MRT inf in data set [14] was found to be 3.13 h; in [15], 7.22 h. In addition, in [16], the bioavailability was 18.8%.

A word on the Vd: it is a proportionality between amount in the body and measured concentration, not a real space. Take `CC(C)(C)c1cc(NC(=O)Nc2ccc(-c3cn4c(n3)sc3cc(OCCN5CCOCC5)ccc34)cc2)no1` [QUIZARTINIB]: the Vz in [1] amounted to 4.078 L/kg. Moreover, the values for the AUC(0-t) in [2] and in [3] were 1930 ng·h/mL and 14500 ng·h/mL, respectively. The area under the curve AUC(0-inf) was 1970 ng·h/mL in data set [4] and 15000 ng·h/mL in data set [5]. Also, the Cmax stood at 728 ng/mL in data set [6] and 1140 ng/mL in data set [7]. Besides, the Tmax came to 1.8 min in data set [8] and 8 h in [9]. Further, the half-life in [10] was 4.38 h; in data set [11], 3.73 h. The Vd in data set [17] was found to be 3.53 L/kg. The clearance in data set [12] is 9.35 mL/min/kg. Also, the CL/F in [13] was 12.6 mL/min/kg. Moreover, the mean residence time (MRT inf) is 5.83 h in data set [14] and 10.1 h in data set [15]. This compound also had a bioavailability in data set [16] of 75.9%.

Source of the values: ChEMBL document CHEMBL4028866 (J Med Chem, 2017).
